Measured values reported in patent US8835440B2, “Cyclic pyrimidin-4-carboxamides as CCR2 receptor antagonists for treatment of inflammation, asthma and COPD” (Boehringer Ingelheim International GmbH, priority 2008, dated 2014).

The compounds below were run against T1, CCR2 (Homo sapiens, UniProt P41597) (assay: CCR2 receptor membrane binding assay ([125I]MCP-1, THP-1 cell membranes, SPA beads)). Conditions: dissociation constant hKi; [125I]MCP-1 binding to THP-1 membranes.
T1 construct: Membranes were prepared from THP-1 cells; endogenous in cells; host or cells: THP-1 cells (membrane preparation)
T1 sequence (P41597 1-360 isoform P41597-2): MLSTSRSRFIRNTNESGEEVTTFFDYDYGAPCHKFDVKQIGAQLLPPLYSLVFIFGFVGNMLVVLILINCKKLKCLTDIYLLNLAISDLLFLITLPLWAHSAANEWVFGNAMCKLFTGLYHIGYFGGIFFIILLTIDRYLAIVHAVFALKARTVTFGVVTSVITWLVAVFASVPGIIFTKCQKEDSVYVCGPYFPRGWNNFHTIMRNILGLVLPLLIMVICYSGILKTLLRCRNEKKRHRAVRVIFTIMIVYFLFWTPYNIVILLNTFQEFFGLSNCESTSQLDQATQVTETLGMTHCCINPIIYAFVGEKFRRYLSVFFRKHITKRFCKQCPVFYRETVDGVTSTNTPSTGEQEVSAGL
Method in brief: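 hKi was derived by iterative law-of-mass-action fitting of scintillation counts read at 8 h. Compound (1% DMSO final) competed with ca. 25000 cpm [125I]MCP-1 for THP-1 membranes bound to WGA-PVT beads. Buffer: 25 mM HEPES pH 7.2, 5 mM MgCl2, 0.5 mM CaCl2, 0.2% BSA.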

Ki [nM] | Structure (SMILES)
14 | Cc1c(NCC2CCC(C(C)C)CC2)ncnc1C(=O)N1CCC(N2CCC(N(C)S(C)(=O)=O)CC2)CC1 (centres unmarked) [Example 159f]
35 | Cc1c(NCC2CCCCCC2)ncnc1C(=O)N1CCC(N2CCC(N(C)S(C)(=O)=O)CC2)CC1 [Example 159fa]
199 | Cc1c(NCC2COC(c3ccccc3)C2)ncnc1C(=O)N1CCC(N2CCC(N(C)S(C)(=O)=O)CC2)CC1 (centres unmarked) [Example 159fb]
13 | COC1COCCC1NC1CCN(C(=O)c2ncnc(NCC3Cc4ccccc4C3)c2C)CC1 (centres unmarked) [Example 159fc]
15 | Cc1c(NCC2CCCC(C)C2)ncnc1C(=O)N1CCC(N2CCC(N(C)S(C)(=O)=O)CC2)CC1 (centres unmarked) [Example 159g]
28 | Cc1nc(NC[C@H]2CC[C@H](c3cccc(C(F)(F)F)c3)O2)c(C)c(C(=O)N2CCC(N3CCC(N(C)S(C)(=O)=O)CC3)CC2)n1 [Example 159ga]
39 | Cc1ccc([C@H]2CC[C@H](CNc3ncnc(C(=O)N4CCC(N5CCC(N(C)S(C)(=O)=O)CC5)CC4)c3C)O2)cc1 [Example 159gb]
26 | Cc1c(NCC2CCc3ccccc3N2)ncnc1C(=O)N1CCC(N2CCC(N(C)S(C)(=O)=O)CC2)CC1 (centres unmarked) [Example 159gc]
39 | Cc1c(NCC2CCCC(C)(C)C2)ncnc1C(=O)N1CCC(N2CCC(N(C)S(C)(=O)=O)CC2)CC1 (centres unmarked) [Example 159h]
27 | Cc1c(NC[C@H]2CC[C@H](c3cccc(C(F)(F)F)c3)O2)ncnc1C(=O)N1CCC(N2CCC(N(C)S(C)(=O)=O)CC2)CC1 [Example 159ha]
20 | Cc1c(NCC2CCC(c3ccc(C(F)(F)F)cc3)O2)ncnc1C(=O)N1CCC(N2CCC(N(C)S(C)(=O)=O)CC2)CC1 (centres unmarked) [Example 159hb]
24 | CNC(=O)C1CCN(C2CCN(C(=O)c3ncnc(NCC4CCCC(c5ccccc5)C4)c3C)CC2)CC1 (centres unmarked) [Example 159i]
17 | Cc1cccc([C@H]2CC[C@H](CNc3ncnc(C(=O)N4CCC(N5CCC(N(C)S(C)(=O)=O)CC5)CC4)c3C)O2)c1 [Example 159ia]
15 | Cc1nc(NCC2CCC(c3ccc(C(F)(F)F)cc3)O2)c(C)c(C(=O)N2CCC(N3CCC(N(C)S(C)(=O)=O)CC3)CC2)n1 (centres unmarked) [Example 159ib]
18 | Cc1cccc([C@H]2CC[C@H](CNc3nc(C)nc(C(=O)N4CCC(N5CCC(N(C)S(C)(=O)=O)CC5)CC4)c3C)O2)c1 [Example 159ja]
39 | Cc1ccc([C@H]2CC[C@@H](CNc3ncnc(C(=O)N4CCC(N5CCC(N(C)S(C)(=O)=O)CC5)CC4)c3C)O2)cc1 [Example 159jb]
22 | CCC1CCC(CNc2ncnc(C(=O)N3CCC(N4CCC(N(C)S(C)(=O)=O)CC4)CC3)c2C)CC1 (centres unmarked) [Example 159k]
19 | Cc1nc(NC[C@@H]2CC[C@H](c3ccc(C(F)(F)F)cc3)O2)c(C)c(C(=O)N2CCC(N3CCC(N(C)S(C)(=O)=O)CC3)CC2)n1 [Example 159ka]
24 | COC1CCN(C2CCN(C(=O)c3ncnc(NCC4CCCC(c5ccc(F)cc5)C4)c3C)CC2)CC1 (centres unmarked) [Example 159kb]
22 | Cc1c(NCC2CCC(C)CC2)ncnc1C(=O)N1CCC(N2CCC(N(C)S(C)(=O)=O)CC2)CC1 (centres unmarked) [Example 159l]

Ki [nM] | Structure (SMILES)
19 | Cc1c(NC[C@@H]2CC[C@H](c3ccc(C(F)(F)F)cc3)O2)ncnc1C(=O)N1CCC(N2CCC(N(C)S(C)(=O)=O)CC2)CC1 [Example 159la]
12 | COC1CCN(C2CCN(C(=O)c3ncnc(NCC4CCCC(c5ccc(Cl)cc5)C4)c3C)CC2)CC1 (centres unmarked) [Example 159lb]
20 | Cc1c(NC[C@@H]2CC[C@@H](c3ccc(C(F)(F)F)cc3)O2)ncnc1C(=O)N1CCC(N2CCC(N(C)S(C)(=O)=O)CC2)CC1 [Example 159ma]
14 | Cc1c(NCc2coc(-c3ccccc3)c2)ncnc1C(=O)N1CCC(N2CCC(N(C)S(C)(=O)=O)CC2)CC1 [Example 159mb]
233 | Cc1c(NCC2CCCC(c3ccccn3)C2)ncnc1C(=O)N1CCC(N2CCC(N(C)S(C)(=O)=O)CC2)CC1 (centres unmarked) [Example 159n]
21 | Cc1ccc(C2CCC(CNc3ncnc(C(=O)N4CCC(N5CCC(N(C)S(C)(=O)=O)CC5)CC4)c3C)O2)cc1F (centres unmarked) [Example 159na]
88 | Cc1c(NCC2Cc3ccccc32)ncnc1C(=O)N1CCC(N2CCC(N(C)S(C)(=O)=O)CC2)CC1 (centres unmarked) [Example 159nb]
12 | Cc1c(NCC2CCC(C(C)(C)C)CC2)ncnc1C(=O)N1CCC(N2CCC(N(C)S(C)(=O)=O)CC2)CC1 (centres unmarked) [Example 159o]
29 | Cc1ccc(C2CCC(CNc3nc(C)nc(C(=O)N4CCC(N5CCC(N(C)S(C)(=O)=O)CC5)CC4)c3C)O2)cc1 (centres unmarked) [Example 159oa]
118 | Cc1c(NCC2CCc3ccccc3O2)ncnc1C(=O)N1CCC(N2CCC(N(C)S(C)(=O)=O)CC2)CC1 (centres unmarked) [Example 159ob]
7 | CNC(=O)C1CCN(C2CCN(C(=O)c3ncnc(NC[C@H]4CCC[C@@H](c5ccccc5)C4)c3C)CC2)CC1 [Example 159p]
32 | Cc1c(NCC2CCC(c3cccc(C(F)(F)F)c3)O2)ncnc1C(=O)N1CCC(N2CCC(N(C)S(C)(=O)=O)CC2)CC1 (centres unmarked) [Example 159pa]
10 | Cc1c(NCC2CCc3ccccc3C2)ncnc1C(=O)N1CCC(N2CCC(N(C)S(C)(=O)=O)CC2)CC1 (centres unmarked) [Example 159pb]
10 | Cc1c(NCC2CCC(c3ccc(F)cc3)C2)ncnc1C(=O)N1CCC(N2CCC(N(C)S(C)(=O)=O)CC2)CC1 (centres unmarked) [Example 159q]
19 | Cc1nc(NCC2CCC(c3cccc(C(F)(F)F)c3)O2)c(C)c(C(=O)N2CCC(N3CCC(N(C)S(C)(=O)=O)CC3)CC2)n1 (centres unmarked) [Example 159qa]
69 | Cc1c(NCC2Cc3ccccc3O2)ncnc1C(=O)N1CCC(N2CCC(N(C)S(C)(=O)=O)CC2)CC1 (centres unmarked) [Example 159qb]
2580 | Cc1c(NCC2CCC(c3nc4ccccc4[nH]3)CC2)ncnc1C(=O)N1CCC(N2CCC(N(C)S(C)(=O)=O)CC2)CC1 (centres unmarked) [Example 159r]
22 | Cc1cccc(C2CCC(CNc3ncnc(C(=O)N4CCC(N5CCC(N(C)S(C)(=O)=O)CC5)CC4)c3C)O2)c1 (centres unmarked) [Example 159ra]
54 | Cc1c(NCC2Cc3cc(Cl)ccc3O2)ncnc1C(=O)N1CCC(N2CCC(N(C)S(C)(=O)=O)CC2)CC1 (centres unmarked) [Example 159rb]
1310 | Cc1c(NCC2CN(c3ccccc3)CCO2)ncnc1C(=O)N1CCC(N2CCC(N(C)S(C)(=O)=O)CC2)CC1 (centres unmarked) [Example 159s]

Ki [nM] | Structure (SMILES)
22 | Cc1cccc(C2CCC(CNc3nc(C)nc(C(=O)N4CCC(N5CCC(N(C)S(C)(=O)=O)CC5)CC4)c3C)O2)c1 (centres unmarked) [Example 159sa]
21 | Cc1c(NCC2COc3ccc(Cl)cc3C2)ncnc1C(=O)N1CCC(N2CCC(N(C)S(C)(=O)=O)CC2)CC1 (centres unmarked) [Example 159sb]
1200 | Cc1c(NCC2(c3ccccc3)CCCCC2)ncnc1C(=O)N1CCC(N2CCC(N(C)S(C)(=O)=O)CC2)CC1 [Example 159t]
27 | Cc1nc(NCC2CCC(c3ccc(C)c(F)c3)O2)c(C)c(C(=O)N2CCC(N3CCC(N(C)S(C)(=O)=O)CC3)CC2)n1 (centres unmarked) [Example 159ta]
13 | Cc1c(NC[C@H]2C[C@H](c3ccc(Cl)cc3)C2)ncnc1C(=O)N1CCC(N2CCC(N(C)S(C)(=O)=O)CC2)CC1 [Example 159tb]
29 | Cc1c(NCc2ccc(-c3ccccc3)o2)ncnc1C(=O)N1CCC(N2CCC(N(C)S(C)(=O)=O)CC2)CC1 [Example 159u]
23 | Cc1nc(NC[C@H]2CC[C@H](c3ccc(Cl)cc3)O2)c(C)c(C(=O)N2CCC(N3CCC(N(C)S(C)(=O)=O)CC3)CC2)n1 [Example 159ua]
18 | Cc1c(NC[C@H]2C[C@H](c3ccccc3)C2)ncnc1C(=O)N1CCC(N2CCC(N(C)S(C)(=O)=O)CC2)CC1 [Example 159ub]
9 | Cc1c(NCC2CCCN(c3ccc(C(F)(F)F)cc3)C2)ncnc1C(=O)N1CCC(N2CCC(N(C)S(C)(=O)=O)CC2)CC1 (centres unmarked) [Example 159w]
33 | Cc1c(NC[C@H]2CC[C@H](c3ccc(Cl)cc3)O2)ncnc1C(=O)N1CCC(N2CCC(N(C)S(C)(=O)=O)CC2)CC1 [Example 159wa]
16 | Cc1c(NC[C@H]2C[C@@H](c3ccc(Cl)cc3)C2)ncnc1C(=O)N1CCC(N2CCC(N(C)S(C)(=O)=O)CC2)CC1 [Example 159wb]
147 | Cc1c(NCC2CCc3ccccc32)ncnc1C(=O)N1CCC(N2CCC(N(C)S(C)(=O)=O)CC2)CC1 (centres unmarked) [Example 159x]
21 | COc1ccc(C2CCCC(CNc3ncnc(C(=O)N4CCC(N5CCC(N(C)S(C)(=O)=O)CC5)CC4)c3C)C2)cc1 (centres unmarked) [Example 159xa]
6 | Cc1ccc([C@H]2CCC[C@@H](CNc3ncnc(C(=O)N4CCC(N5CCC(N(C)S(C)(=O)=O)CC5)CC4)c3C)C2)o1 [Example 159xb]
169 | Cc1c(NCCc2cn(C)c3ccccc23)ncnc1C(=O)N1CCC(N2CCC(N(C)S(C)(=O)=O)CC2)CC1 [Example 159y]
18 | Cc1nc(NC[C@H]2CC[C@H](c3ccc(F)c(C)c3)O2)c(C)c(C(=O)N2CCC(N3CCC(N(C)S(C)(=O)=O)CC3)CC2)n1 [Example 159ya]
15 | Cc1c(NC[C@H]2C[C@@H](c3ccccc3)C2)ncnc1C(=O)N1CCC(N2CCC(N(C)S(C)(=O)=O)CC2)CC1 [Example 159yb]
11 | Cc1c(NCC2CCCC(c3ccc(F)cc3)C2)ncnc1C(=O)N1CCC(N2CCC(N(C)S(C)(=O)=O)CC2)CC1 (centres unmarked) [Example 159z]
6 | Cc1ccc(C2CCCC(CNc3ncnc(C(=O)N4CCC(N5CCC(N(C)S(C)(=O)=O)CC5)CC4)c3C)C2)cc1 (centres unmarked) [Example 159za]
